In patent US8138340B2, “Bicyclononene derivatives” (Actelion Pharmaceuticals Ltd., priority 2004, dated 2012):

Each compound was assayed against T1, recombinant human renin (Homo sapiens, UniProt P00797) (assay: Primary renin inhibition assay: IC50 in buffer, 384 well MTP (AngI quantified by EIA)). Conditions: human tetradecapeptide substrate, assay buffer pH 7.4, 37° C. for 3 h.
T1 sequence (P00797 67-406): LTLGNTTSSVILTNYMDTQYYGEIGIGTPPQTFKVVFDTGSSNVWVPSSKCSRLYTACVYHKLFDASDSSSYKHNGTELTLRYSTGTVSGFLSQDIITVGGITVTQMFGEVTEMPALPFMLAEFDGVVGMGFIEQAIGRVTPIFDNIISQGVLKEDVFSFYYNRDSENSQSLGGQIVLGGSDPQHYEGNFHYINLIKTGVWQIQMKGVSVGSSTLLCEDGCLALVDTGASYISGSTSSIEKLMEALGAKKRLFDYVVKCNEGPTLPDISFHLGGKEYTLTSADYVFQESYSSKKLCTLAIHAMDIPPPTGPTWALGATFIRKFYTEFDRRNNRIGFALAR
Assay type: biochemical
Description: 1. Enzyme Immuno Assay (EIA) to Estimate AngI Accumulation and Renin Inhibition
1.1 Preparation of AngI-BSA Conjugate
1.3 mg (1 μmol) of AngI [1-10 (Bachem, H-1680)] and 17 mg (0.26 μmol) of BSA (Fluka, 05475) were dissolved in 4 mL of 0.1M phosphate buffer, pH 7.4, after which 2 mL of a 1:100 dilution of glutaraldehyde in H2O (Sigma G-5882) was added dropwise. The mixture was incubated overnight at 4° C., then dialyzed against 2 liters of 0.9% NaCl, twice for 4 h at rt, followed by dialysis against 2 liters of PBS 1× overnight at rt. The solution was then filtered with a Syringe filter, 0.45 μm (Nalgene, Cat. No. 194-2545). The conjugate can be stored in polypropylene tubes in 0.05% sodium azide at 4° C. for at least 12 months.
1.2 Preparation of BSA-AngI Coated MTP
Microtiter plates (MPT384, MaxiSorp™, Nunc) were incubated overnight at 4° C. with 80 μl of AngI (1-10)/BSA conjugate, diluted 1:100'000 in PBS 1× in a teflon beaker (exact dilution dependent on batch of conjugate), emptied, filled with 90 μl of blocking solution [0.5% BSA (Sigma A-2153) in PBS 1×, 0.02% NaN3], and incubated for at least 2 h at rt, or overnight at 4° C. 96 well MTP (MaxiSorp™, Nunc) were coated with […] conjugate and blocked with 250 μl blocking solution as above, except that the blocking solution contained 3% BSA. The plates can be stored in blocking solution at 4° C. for 1 month.
1.3 AngI-EIA in 384 well MTP
The AngI (1-10)/BSA coated MTP were washed 3 times with wash buffer (PBS 1×, 0.01% Tween 20) and filled with 75 μl of primary antibody solution (anti-AngI antiserum, pre-diluted 1:10 in horse serum), diluted to a final concentration of 1:100'000 in assay buffer (PBS 1×, 1 mM EDTA, 0.1% BSA, pH 7.4). 5 μl of the renin reaction (or standards in assay buffer) (see below) were added to the primary antibody solution and the plates were incubated overnight at 4° C. After the incubation the plates were washed 3 times with wash buffer and incubated with secondary antibody [anti-rabbit IgG, linked to horseradish peroxidase (Amersham Bioscience, NA 934V), diluted 1:2'000 in wash buffer] for 2 h at rt. The plates were washed 3 times with wash buffer and then incubated for 1 h at rt with substrate solution [1.89 mM ABTS (2.2′-azino-di-(3-ethyl-benzthiazolinsulfonate)] (Roche Diagnostics, 102 946) and 2.36 mM H2O2 [30%, (Fluka, 95300] in substrate buffer (0.1M sodium acetate, 0.05M sodium dihydrogen phosphate, pH 4.2). The OD of the plate was read at 405 nm in a microplate reader (FLUOStar Optima from BMG). The production of AngI during the renin reaction was quantified by comparing the OD of the sample with the OD of a standard curve of AngI(1-10), measured in parallel.
2. Primary Renin Inhibition Assay: IC50 in Buffer, 384 well MTP
The renin assay was adapted from an assay described before (Fischli W. et al., Hypertension, 1991, 18:22-31) and consists of two steps: in the first step, recombinant human renin is incubated with its substrate (commercial human tetradecapeptide renin substrate) to create the product Angiotensin I (AngI). In the second step, the accumulated AngI is measured by an immunological assay (enzyme immuno assay, EIA). The detailed description of this assay is found below. The EIA is very sensitive and well suited for renin activity measurements in buffer or in plasma. Due to the low concentration of renin used in this assay (2 fmol per assay tube or 10 pM) it is possible to measure inhibitor affinities in this primary assay down to low pM concentration.
Recombinant human renin (3 pg/μl) in assay buffer (PBS 1×, 1 mM EDTA, 0.1% BSA, pH 7.4), human tetradecapeptide (1-14) substrate (Bachem, M-1120) [5 μM in 10 mM HCl], hydroxyquinoline sulfate (Fluka, 55100) [30 mM in H2O] and assay buffer were premixed at 4° C. at a ratio of 100:30:10:145. 47.5 μl per well of this premix was transferred into polypropylene plates (MTP384, Nunc). […]

Compound | IC50 [µM]
O=C(C1=C(c2nc(CCCOc3cc(C(F)(F)F)ccc3Cl)cs2)C[C@@H]2CNC[C@H]1N2)N(Cc1cccc(Cl)c1Cl)C1CC1 (racemic) [Example 2, (rac.)-(1R*, 5S*)-7-{4-[3-(2-Chloro-5-trifluoromethylphenoxy)propyl]thiazol-2-yl}-3,9-diazabicyclo[3.3.1]non-6-ene-6-carboxylic acid cyclopropyl-(2,3-dichlorobenzyl)amide] | 0.094
Cc1ccc(F)c(OCCOc2ncc(C3=C(C(=O)N(Cc4cccc(Cl)c4Cl)C4CC4)[C@H]4CNC[C@@H](C3)N4)s2)c1Cl (racemic) [Example 7, (rac.)-(1R*, 5S*)-7-{2-[2-(2-Chloro-6-fluoro-3-methylphenoxy)ethoxy]thiazol-5-yl}-3,9-diazabicyclo[3.3.1]non-6-ene-6-carboxylic acid cyclopropyl-(2,3-dichlorobenzyl)-amide] | 0.0029
Cc1ccc(F)c(OCCCc2coc(C3=C(C(=O)N(Cc4cccc(Cl)c4Cl)C4CC4)[C@H]4CNC[C@@H](C3)N4)n2)c1Cl (racemic) [Example 12, (rac.)-(1R*, 5S*)-7-{4-[3-(2-Chloro-6-fluoro-3-methylphenoxy)propyl]oxazol-2-yl}-3,9-diazabicyclo[3.3.1]non-6-ene-6-carboxylic acid cyclopropyl-(2,3-dichlorobenzyl)-amide] | 0.046
COc1cccc(CN(C(=O)C2=C(c3cnc(CCCOc4c(Cl)cc(C)cc4Cl)s3)C[C@@H]3CNC[C@H]2N3)C2CC2)c1C (racemic) [Example 21, (rac.)-(1R*, 5S*)-7-{2-[3-(2,6-Dichloro-4-methylphenoxy)propyl]thiazol-5-yl}-3,9-diazabicyclo[3.3.1]non-6-ene-6-carboxylic acid cyclopropyl-(3-methoxy-2-methylbenzyl)amide] | 0.0044
COc1cccc(CN(C(=O)C2=C(c3cnc(OCCOc4c(Cl)cc(C)cc4Cl)s3)C[C@@H]3CNC[C@H]2N3)C2CC2)c1C (racemic) [Example 35, (rac.)-(1R*, 5S*)-7-{2-[2-(2,6-Dichloro-4-methylphenoxy)ethoxy]thiazol-5-yl}-3,9-diazabicyclo[3.3.1]non-6-ene-6-carboxylic acid cyclopropyl-(3-methoxy-2-methylbenzyl)amide] | 0.0013
Cc1cc(Cl)c(OCCOc2ncc(C3=C(C(=O)N(Cc4cccc(F)c4F)C4CC4)[C@H]4CNC[C@@H](C3)N4)s2)c(Cl)c1 (racemic) [Example 45, (rac.)-(1R*, 5S*)-7-{2-[2-(2,6-Dichloro-4-methylphenoxy)ethoxy]thiazol-5-yl}-3,9-diazabicyclo[3.3.1]non-6-ene-6-carboxylic acid cyclopropyl-(2,3-difluorobenzyl)amide] | 0.015
Cc1cc(Cl)c(OCCOc2ncc(C3=C(C(=O)N(Cc4cccc(Cl)c4C)C4CC4)[C@H]4CNC[C@@H](C3)N4)s2)c(Cl)c1 (racemic) [Example 52, (rac.)-(1R*, 5S*)-7-{2-[2-(2,6-Dichloro-4-methylphenoxy)ethoxy]thiazol-5-yl}-3,9-diazabicyclo[3.3.1]non-6-ene-6-carboxylic acid (3-chloro-2-methylbenzyl)cyclopropyl-amide] | 0.0011
(rac.)-(1R*, 5S*)-7-{4-[3-(3-Chloro-2,6-difluorophenoxy)propyl]thiazol-2-yl}-3,9-diazabicyclo[3.3.1]non-6-ene-6-carboxylic acid cyclopropyl-(2,3-dichloro-benzyl)amide [Example 3] | 0.016
(rac.)-(1R*, 5S*)-7-{5-[2-(4-Chloro-3,5-dimethylphenoxy)ethyl]-4-methylthiazol-2-yl}-3,9-diazabicyclo[3.3.1]non-6-ene-6-carboxylic acid cyclopropyl-(3-methoxy-2-methylbenzyl)amide [Example 1] | 0.057
